From patent US20250092031A1, “RIPK3 INHIBITORS AND METHODS OF USE” (Momentum Therapeutics, Inc., priority 2023, published 2025)

Assays:
Human HT-29 cells = assay: Necroptosis inhibition assay in HT-29 cells (hTNFα + zVAD + SMAC mimetic, Sytox Green/Hoechst); assay type: cell-based; conditions: 10 ng/ml hTNFα, 20 μM zVAD and 100 nM SMAC mimetic, 6 hours, Sytox/Hoechst positive cells, read-out: HT29 necroptosis inhibition IC50
Method: Human HT-29 cells (ATCC-HTB-38) were seeded at 10,000 cells/well in a 96-well plate. Cells were treated 48 hours after seeding with 10 ng/ml hTNFα (R&D Systems), 20 μM zVAD (ChemShuttle) and 100 nM SMAC mimetic (MedChem Express) in the presence of different concentrations of compounds ranging from […] to 0.01 μM. Cells treated with 0.1% DMSO or cells treated with TNFα+zVAD+SMAC mimetic were used as control and vehicle respectively.
Assay plates containing cells were incubated for 6 hours at 37° C. and 5% CO2. Necroptosis was assessed using Sytox Green Nucleic Acid Stain (Invitrogen) and Hoechst staining. After incubation, 100 μL of Sytox dye at 2 μM (2×) diluted in HBSS 1× was added to each well. At the same time, Hoechst stain is added to a final concentration of 10 μM and incubated for 15 min at room temperature. Images were taken for Sytox and Hoechst using the Cytation 5 microplate reader with DAPI and GFP filter cubes (Biotek). Sytox and Hoechst positive cells were counted with CellProfiler software.
(§1) Percentage of necroptosis inhibition was calculated as the percent compared to control and vehicle conditions which correspond to 100% and 0% respectively. The half-maximum necroptosis inhibition (IC50) levels were calculated using GraphPad Prism software and are shown in Table 3 (NT represents compound not tested).

Murine L929 cells = assay: Necroptosis inhibition assay in L929 cells (mTNFα + zVAD, Sytox Green); assay type: cell-based; conditions: Mus musculus, 10 ng/ml mTNFα and 20 μM zVAD, 6 hours, Sytox Green fluorescence
Method: Murine L929 cells (ATCC-CCL-1) were seeded at 10,000 cells/well in a 96-well plate. Cells were treated 48 hours after seeding with 10 ng/ml mTNFα (R&D Systems) and 20 μM zVAD (ChemShuttle) in the presence of different concentrations of compounds ranging from […] to 0.01 μM. Cells treated with 0.1% DMSO or cells treated with TNFα+zVAD were used as control and vehicle respectively.
Assay plates containing cells were incubated for 6 hours at 37° C. and 5% CO2. Necroptosis was assessed using Sytox Green Nucleic Acid Stain (Invitrogen). After incubation, 100 μL of Sytox dye at 2 μM (2×) diluted in HBSS 1× was added in each well and incubated for 15 min at room temperature. Fluorescence (500ex/530em) was recorded using the Cytation 5 microplate reader (Biotek).
as §1

Which results are given for `O=C(c1ccc(-c2ccc3c(Nc4ccc5scnc5c4)ccnc3c2)c(F)c1)N1CCNCC1` [Compound 250, (4-(4-(benzo[d]thiazol-5-ylamino)quinolin-7-yl)-3-fluorophenyl)(piperazin-1-yl)methanone]?
IC50 (Human HT-29 cells): 2530 nM; IC50 (Murine L929 cells): 344 nM

`O=C(c1ccc(-c2ccc3nccc(Nc4ccc5scnc5c4)c3c2)c(F)c1)N1CC2(CCOCC2)C1` [Compound 251, (4-(4-(benzo[d]thiazol-5-ylamino)quinolin-6-yl)-3-fluorophenyl)(7-oxa-2-azaspiro[3.5]nonan-2-yl)methanone] was tested. Which IC50 (Human HT-29 cells) did it give?
The IC50 was 822 nM.

What about the IC50 (Murine L929 cells) of the same molecule?
Its IC50 is 582 nM.

`O=C(c1ccc(-c2ccc3c(Nc4ccc5scnc5c4)ccnc3c2)c(F)c1)N1CC2(CCOCC2)C1` [Compound 252, (4-(4-(benzo[d]thiazol-5-ylamino)quinolin-7-yl)-3-fluorophenyl)(7-oxa-2-azaspiro[3.5]nonan-2-yl)methanone] was tested. Which IC50 (Human HT-29 cells) did it give?
Its IC50 is 244 nM.

And the IC50 (Murine L929 cells)?
The IC50 was 260 nM.

`c1cc(Nc2ccc3scnc3c2)c2ccc(-c3ccc(C4CCNCC4)cc3)cc2n1` [Compound 253, N-(7-(4-(piperidin-4-yl)phenyl)quinolin-4-yl)benzo[d]thiazol-5-amine] was tested. Which IC50 (Human HT-29 cells) did it give?
Its IC50 is 755 nM.

And the IC50 (Murine L929 cells)?
The IC50 was 271 nM.

With `O=C1CN(Cc2ccc(-c3ccc4nccc(Nc5ccc6[nH]ncc6c5)c4c3)c(F)c2)CCN1` [Compound 271, 4-(4-(4-(1H-indazol-5-ylamino)quinolin-6-yl)-3-fluorobenzyl)piperazin-2-one] as the molecule, how does the IC50 (Murine L929 cells) read?
The IC50 was over 10000 nM.

With `CN1CCN(C(=O)c2ccc(-c3ccc4nccc(Nc5ccc6scnc6c5)c4c3)c(F)c2)CC1=O` [Compound 273, 4-(4-(4-(benzo[d]thiazol-5-ylamino)quinolin-6-yl)-3-fluorobenzoyl)-1-methylpiperazin-2-one] as the molecule, how does the IC50 (Human HT-29 cells) read?
The IC50 was 780 nM.

And the IC50 (Murine L929 cells)?
The IC50 was 1100 nM.

With `CN1CCN(C(=O)c2ccc(-c3ccc4c(Nc5ccc6scnc6c5)ccnc4c3)c(F)c2)CC1=O` [Compound 274, 4-(4-(4-(benzo[d]thiazol-5-ylamino)quinolin-7-yl)-3-fluorobenzoyl)-1-methylpiperazin-2-one] as the molecule, how does the IC50 (Human HT-29 cells) read?
Its IC50 is 1190 nM.

What about the IC50 (Murine L929 cells) of the same molecule?
Its IC50 is 515 nM.

What does the source list for `O=C1CN(C(=O)c2ccc(-c3ccc4nccc(Nc5ccc6scnc6c5)c4c3)c(F)c2)CCN1` [Compound 275, 4-(4-(4-(benzo[d]thiazol-5-ylamino)quinolin-6-yl)-3-fluorobenzoyl)piperazin-2-one]?
IC50 (Human HT-29 cells): 689 nM; IC50 (Murine L929 cells): 3820 nM

How did the IC50 (Human HT-29 cells) turn out when `CC1CN(C(=O)c2ccc(-c3ccc4nccc(Nc5ccc6scnc6c5)c4c3)c(F)c2)CCN1` (stereo not shown) [Compound 286, (4-(4-(benzo[d]thiazol-5-ylamino)quinolin-6-yl)-3-fluorophenyl)(3-methylpiperazin-1-yl)methanone] was run?
Its IC50 is 75.8 nM.

What about the IC50 (Murine L929 cells) of the same molecule?
Its IC50 is 852 nM.

For `O=C1CN(Cc2ccc(-c3ccc4nccc(Nc5ccc6occc6c5)c4c3)c(F)c2)CCN1` [Compound 287, 4-(4-(4-(benzofuran-5-ylamino)quinolin-6-yl)-3-fluorobenzyl)piperazin-2-one], which IC50 (Murine L929 cells) is on record?
The IC50 was over 10000 nM.

How did the IC50 (Murine L929 cells) turn out when `Cn1ncc2cc(Nc3ccnc4ccc(-c5ccc(CN6CCNC(=O)C6)cc5F)cc34)ccc21` [Compound 288, 4-(3-fluoro-4-(4-(1-methyl-1H-indazol-5-ylamino)quinolin-6-yl)benzyl)piperazin-2-one] was run?
Its IC50 is over 10000 nM.

For `O=C1CN(Cc2ccc(-c3ccc4nccc(Nc5ccc6oncc6c5)c4c3)c(F)c2)CCN1` [Compound 289, 4-(4-(4-(benzo[d]isoxazol-5-ylamino)quinolin-6-yl)-3-fluorobenzyl)piperazin-2-one], which IC50 (Murine L929 cells) is on record?
Its IC50 is over 10000 nM.

What does the source list for `Fc1cc(CN2CCC3(CCNCC3)CC2)ccc1-c1ccc2nccc(Nc3ccc4scnc4c3)c2c1` [Compound 290, N-(6-(4-((3,9-diazaspiro[5.5]undecan-3-yl)methyl)-2-fluorophenyl)quinolin-4-yl)benzo[d]thiazol-5-amine]?
IC50 (Human HT-29 cells): < 1000 nM; IC50 (Murine L929 cells): < 10000 nM

`Fc1cc(CN2CCC3(CCNCC3)CC2)ccc1-c1ccc2c(Nc3ccc4scnc4c3)ccnc2c1` [Compound 291, N-(7-(4-((3,9-diazaspiro[5.5]undecan-3-yl)methyl)-2-fluorophenyl)quinolin-4-yl)benzo[d]thiazol-5-amine] was tested. Which IC50 (Human HT-29 cells) did it give?
Its IC50 is under 1000 nM.

What about the IC50 (Murine L929 cells) of the same molecule?
Its IC50 is under 10000 nM.

What does the source list for `C[C@@H]1CN(C(=O)c2ccc(-c3ccc4nccc(Nc5ccc6scnc6c5)c4c3)c(F)c2)C[C@H](C)N1` [Compound 293, (4-(4-(benzo[d]thiazol-5-ylamino)quinolin-6-yl)-3-fluorophenyl)((3R,5S)-3,5-dimethylpiperazin-1-yl)methanone]?
IC50 (Human HT-29 cells): 32.3 nM; IC50 (Murine L929 cells): 347 nM

`O=C(c1ccc(-c2ccc3nccc(Nc4ccc5scnc5c4)c3c2)nc1)N1CC2(CNC2)C1` [Compound 294, (6-(4-(benzo[d]thiazol-5-ylamino)quinolin-6-yl)pyridin-3-yl)(2,6-diazaspiro[3.3]heptan-2-yl)methanone] was tested. Which IC50 (Murine L929 cells) did it give?
Its IC50 is over 10000 nM.

`Fc1cc(OC2CCNCC2)ccc1-c1ccc2nccc(Nc3ccc4scnc4c3)c2c1` [Compound 295, N-(6-(2-fluoro-4-(piperidin-4-yloxy)phenyl)quinolin-4-yl)benzo[d]thiazol-5-amine] was tested. Which IC50 (Human HT-29 cells) did it give?
Its IC50 is 147 nM.

What about the IC50 (Murine L929 cells) of the same molecule?
The IC50 was 781 nM.

Which IC50 (Human HT-29 cells) does the source give for `Cc1cc(-c2ccc3nccc(Nc4ccc5scnc5c4)c3c2)c(F)cc1C(=O)N1CCNCC1` [Compound 296, (4-(4-(benzo[d]thiazol-5-ylamino)quinolin-6-yl)-5-fluoro-2-methylphenyl)(piperazin-1-yl)methanone] here?
Its IC50 is 16.9 nM.

And the IC50 (Murine L929 cells)?
The IC50 was 1290 nM.

What does the source list for `Cc1cc(-c2ccc3c(Nc4ccc5scnc5c4)ccnc3c2)c(F)cc1C(=O)N1CCNCC1` [Compound 297, (4-(4-(benzo[d]thiazol-5-ylamino)quinolin-7-yl)-5-fluoro-2-methylphenyl)(piperazin-1-yl)methanone]?
IC50 (Human HT-29 cells): 174 nM; IC50 (Murine L929 cells): 282 nM

`O=C(c1ccc(-c2ccc3nccc(Nc4ccc5scnc5c4)c3c2)c(F)c1)N1CC2CNCC2C1` (stereo not shown) [Compound 298, (4-(4-(benzo[d]thiazol-5-ylamino)quinolin-6-yl)-3-fluorophenyl)(hexahydropyrrolo[3,4-c]pyrrol-2(1H)-yl)methanone] was tested. Which IC50 (Murine L929 cells) did it give?
The IC50 was under 10000 nM.

With `O=C(c1ccc(-c2ccc3c(Nc4ccc5scnc5c4)ccnc3c2)c(F)c1)N1CC2CNCC2C1` (stereo not shown) [Compound 302, (4-(4-(benzo[d]thiazol-5-ylamino)quinolin-7-yl)-3-fluorophenyl)(hexahydropyrrolo[3,4-c]pyrrol-2(1H)-yl)methanone] as the molecule, how does the IC50 (Murine L929 cells) read?
Its IC50 is under 10000 nM.

`O=C(c1ccc(-c2ccc3nccc(Nc4ccc5scnc5c4)c3c2)c(F)c1)N1C[C@H]2C[C@@H](C1)N2` [Compound 304, (4-(4-(benzo[d]thiazol-5-ylamino)quinolin-6-yl)-3-fluorophenyl)((1R,5S)-3,6-diazabicyclo[3.1.1]heptan-3-yl)methanone] was tested. Which IC50 (Murine L929 cells) did it give?
Its IC50 is under 10000 nM.

With `O=C(c1ccc(-c2ccc3nccc(Nc4ccc5scnc5c4)c3c2)c(F)c1)N1[C@@H]2CNC[C@H]1C2` [Compound 308, (4-(4-(benzo[d]thiazol-5-ylamino)quinolin-6-yl)-3-fluorophenyl)((1R,5S)-3,6-diazabicyclo[3.1.1]heptan-6-yl)methanone] as the molecule, how does the IC50 (Murine L929 cells) read?
The IC50 was under 10000 nM.

`Fc1cc(OC2CCNCC2)ccc1-c1ccc2c(Nc3ccc4scnc4c3)ccnc2c1` [Compound 309, N-(7-(2-fluoro-4-(piperidin-4-yloxy)phenyl)quinolin-4-yl)benzo[d]thiazol-5-amine] was tested. Which IC50 (Murine L929 cells) did it give?
The IC50 was under 10000 nM.

`O=C(c1ccc(-c2ccc3c(Nc4ccc5scnc5c4)ccnc3c2)c(F)c1)N1CCC2(CCNC2)CC1` [Compound 314, (4-(4-(benzo[d]thiazol-5-ylamino)quinolin-7-yl)-3-fluorophenyl)(2,8-diazaspiro[4.5]decan-8-yl)methanone] was tested. Which IC50 (Murine L929 cells) did it give?
Its IC50 is under 10000 nM.

`Fc1cc(CN2CCNCC2)ccc1-c1ccc2nccc(Nc3ccc4sccc4c3)c2c1` [Compound 385, N-(benzo[b]thiophen-5-yl)-6-(2-fluoro-4-(piperazin-1-ylmethyl)phenyl)quinolin-4-amine] was tested. Which IC50 (Murine L929 cells) did it give?
Its IC50 is over 10000 nM.

For `Fc1cc(CN2CCNCC2)ccc1-c1ccc2nccc(Nc3ccc4occc4c3)c2c1` [Compound 386, N-(benzofuran-5-yl)-6-(2-fluoro-4-(piperazin-1-ylmethyl)phenyl)quinolin-4-amine], which IC50 (Murine L929 cells) is on record?
Its IC50 is over 10000 nM.

How did the IC50 (Murine L929 cells) turn out when `Fc1cc(CN2CCNCC2)ccc1-c1ccc2nccc(Nc3ccc4[nH]ncc4c3)c2c1` [Compound 387, 6-(2-fluoro-4-(piperazin-1-ylmethyl)phenyl)-N-(1H-indazol-5-yl)quinolin-4-amine] was run?
The IC50 was over 10000 nM.

With `Cn1ncc2cc(Nc3ccnc4ccc(-c5ccc(CN6CCNCC6)cc5F)cc34)ccc21` [Compound 388, 6-(2-fluoro-4-(piperazin-1-ylmethyl)phenyl)-N-(1-methyl-1H-indazol-5-yl)quinolin-4-amine] as the molecule, how does the IC50 (Murine L929 cells) read?
The IC50 was over 10000 nM.
